# Assay results reported in ChEMBL document CHEMBL1201862, “PubChem BioAssay data set” (2004).
# Activity calls are given as the source filed them.
# Legend:
# [1] = Luminescence Cell-Based Dose Response HTS to Identify Activators of Luciferase Translation or Activity in H4 […] Cells. [Related pubchem assays: 1829 (Project Summary), 1814 (Primary HTS)]; format: functional
# H4 = assay: Luminescence Cell-Based Dose Response HTS to Identify Activators of 5'UTR Stem-Loop Driven Prion Protein mRNA Translation in H4 Neuroglioblastoma Cells. [Related pubchem assays: 1829 (Project Summary), 1814 (Primary HTS)]; format: functional; conditions: Homo sapiens
# Cytochrome P450 2C9 = Cytochrome P450 2C9 (Homo sapiens, UniProt P11712)
# Cytochrome P450 2C19 = Cytochrome P450 2C19 (Homo sapiens, UniProt P33261); assay: Cytochrome panel assay with activity outcomes. Panel member name: p450-cyp2c19 Compounds with AC50 equal or less than 10 uM are considered active; format: functional; conditions: read-out: AC50
# [2] = target: T1, Rac GTPase-activating protein 1 (Homo sapiens, UniProt Q9H0H5); assay: MgcRacGAP GTPase-activating activity inhibitors, confirmation, biochemical, ADP Hunter fluorescence, primary and confirmatory (AID 624330); format: functional
# T1 sequence (Q9H0H5 whole entry): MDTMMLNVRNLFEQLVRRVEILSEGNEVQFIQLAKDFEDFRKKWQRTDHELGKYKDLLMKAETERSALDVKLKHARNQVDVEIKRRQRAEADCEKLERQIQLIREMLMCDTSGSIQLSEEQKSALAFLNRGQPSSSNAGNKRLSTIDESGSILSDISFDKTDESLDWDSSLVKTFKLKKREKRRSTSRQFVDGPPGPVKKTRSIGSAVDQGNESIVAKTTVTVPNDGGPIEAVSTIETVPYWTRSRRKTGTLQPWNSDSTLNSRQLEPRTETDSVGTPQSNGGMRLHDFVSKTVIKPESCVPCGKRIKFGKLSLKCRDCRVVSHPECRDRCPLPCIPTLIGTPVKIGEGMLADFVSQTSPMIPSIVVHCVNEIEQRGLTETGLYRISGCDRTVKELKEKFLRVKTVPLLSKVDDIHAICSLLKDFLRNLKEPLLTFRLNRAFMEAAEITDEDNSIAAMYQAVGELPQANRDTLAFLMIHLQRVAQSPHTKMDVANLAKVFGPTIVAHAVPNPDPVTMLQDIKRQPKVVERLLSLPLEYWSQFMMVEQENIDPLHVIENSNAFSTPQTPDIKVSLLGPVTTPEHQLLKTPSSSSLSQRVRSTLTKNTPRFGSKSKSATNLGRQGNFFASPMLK
# [3] = target: T2, Heat shock factor protein 1 (Mus musculus, UniProt P38532); assay: inhibition of MG132-induced HSE-luciferase signal, confirmation, cell-based, NIH3T3, luminescence, dose retest (AID 2382); format: functional;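 further: NIH3T3 fibroblasts with HSF1-driven luciferase reporter stressed by proteasome inhibitor MG132; luminescence from HSF1-driven luciferase expression after 8 hours of MG132 stress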
# T2 sequence (P38532 whole entry): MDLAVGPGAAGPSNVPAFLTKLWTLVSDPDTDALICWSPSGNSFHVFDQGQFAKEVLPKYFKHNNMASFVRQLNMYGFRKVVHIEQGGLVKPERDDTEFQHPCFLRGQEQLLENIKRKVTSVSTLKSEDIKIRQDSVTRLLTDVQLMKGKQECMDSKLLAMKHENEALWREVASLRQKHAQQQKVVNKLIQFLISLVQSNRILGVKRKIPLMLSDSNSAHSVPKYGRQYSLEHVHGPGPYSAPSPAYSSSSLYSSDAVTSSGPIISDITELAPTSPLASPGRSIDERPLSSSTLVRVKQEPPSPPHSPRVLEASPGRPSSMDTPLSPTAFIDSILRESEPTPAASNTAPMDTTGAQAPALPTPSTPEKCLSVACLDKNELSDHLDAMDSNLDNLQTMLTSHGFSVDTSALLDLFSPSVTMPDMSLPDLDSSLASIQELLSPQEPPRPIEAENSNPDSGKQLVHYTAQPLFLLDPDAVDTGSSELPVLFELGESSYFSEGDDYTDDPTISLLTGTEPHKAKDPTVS
# [4] = system: Streptococcus sp. 'group A'; assay: growth inhibition of control SK(-) GAS strain, dose response, counter-screen for streptokinase expression inhibitor project, luminescence, kanamycin, BacTiterGlo, confirmation (AID 1900); format: functional, organism-based
# Streptococcus = assay: Group A Streptococcus viability loss, dose response, counter-screen for streptokinase expression inhibitor project, luminescence, BacTiterGlo (AID 1915); format: functional, organism-based;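 further: potency for reduction of bacterial viability or growth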
# Streptokinase A = target: T3, Streptokinase A (Streptococcus pyogenes serotype M1, UniProt P10520); assay: S. pyogenes streptokinase expression inhibitors, potency, dose response, plasminogen activation absorbance, OD405 (AID 1914); format: functional, Streptococcus pyogenes M1 GAS;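 further: secreted streptokinase activity via plasminogen activation per viability signal from cell pellet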
# T3 sequence (P10520 whole entry): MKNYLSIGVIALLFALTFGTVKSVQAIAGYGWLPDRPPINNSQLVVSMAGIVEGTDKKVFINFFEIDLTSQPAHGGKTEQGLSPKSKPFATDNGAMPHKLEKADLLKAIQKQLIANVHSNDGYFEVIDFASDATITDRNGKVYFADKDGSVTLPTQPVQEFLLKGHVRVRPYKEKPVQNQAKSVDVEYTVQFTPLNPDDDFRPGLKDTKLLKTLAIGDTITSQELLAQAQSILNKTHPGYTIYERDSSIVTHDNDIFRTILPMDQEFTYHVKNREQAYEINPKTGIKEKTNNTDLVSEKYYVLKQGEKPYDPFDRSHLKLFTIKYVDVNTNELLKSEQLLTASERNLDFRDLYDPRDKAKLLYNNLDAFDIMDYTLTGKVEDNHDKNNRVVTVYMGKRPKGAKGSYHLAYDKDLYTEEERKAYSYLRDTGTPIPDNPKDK
# [5] = target: T4, Corticotropin-releasing factor receptor 2/Corticotropin-releasing factor-binding protein (Homo sapiens, UniProt P24387+Q13324); assay: activators of CRF receptor 2 with binding protein – uHTS hits, confirmation (AID 602473); format: functional; conditions: read-out: EC50_Mean
# T4 sequence (Q13324 whole entry): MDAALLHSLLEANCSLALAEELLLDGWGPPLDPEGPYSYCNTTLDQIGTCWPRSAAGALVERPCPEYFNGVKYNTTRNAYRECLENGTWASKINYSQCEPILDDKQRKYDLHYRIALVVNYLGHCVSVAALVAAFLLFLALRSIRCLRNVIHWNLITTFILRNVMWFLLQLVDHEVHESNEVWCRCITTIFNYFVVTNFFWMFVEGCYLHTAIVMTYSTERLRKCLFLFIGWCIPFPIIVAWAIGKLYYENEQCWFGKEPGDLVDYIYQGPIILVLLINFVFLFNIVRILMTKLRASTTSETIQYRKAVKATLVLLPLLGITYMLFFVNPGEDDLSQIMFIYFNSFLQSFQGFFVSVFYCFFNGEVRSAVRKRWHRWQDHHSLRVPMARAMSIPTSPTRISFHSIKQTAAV
# T4 sequence (P24387 whole entry): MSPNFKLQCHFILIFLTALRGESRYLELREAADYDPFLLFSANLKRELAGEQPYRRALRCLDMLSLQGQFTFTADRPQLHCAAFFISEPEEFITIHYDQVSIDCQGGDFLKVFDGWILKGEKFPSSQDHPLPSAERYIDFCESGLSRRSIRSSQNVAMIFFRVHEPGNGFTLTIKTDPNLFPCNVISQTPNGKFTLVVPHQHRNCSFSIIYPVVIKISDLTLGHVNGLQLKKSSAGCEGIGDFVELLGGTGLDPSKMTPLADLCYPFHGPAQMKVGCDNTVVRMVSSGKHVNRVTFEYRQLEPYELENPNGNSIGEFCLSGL
# Cytochrome P450 2C19, sequence (P33261 whole entry): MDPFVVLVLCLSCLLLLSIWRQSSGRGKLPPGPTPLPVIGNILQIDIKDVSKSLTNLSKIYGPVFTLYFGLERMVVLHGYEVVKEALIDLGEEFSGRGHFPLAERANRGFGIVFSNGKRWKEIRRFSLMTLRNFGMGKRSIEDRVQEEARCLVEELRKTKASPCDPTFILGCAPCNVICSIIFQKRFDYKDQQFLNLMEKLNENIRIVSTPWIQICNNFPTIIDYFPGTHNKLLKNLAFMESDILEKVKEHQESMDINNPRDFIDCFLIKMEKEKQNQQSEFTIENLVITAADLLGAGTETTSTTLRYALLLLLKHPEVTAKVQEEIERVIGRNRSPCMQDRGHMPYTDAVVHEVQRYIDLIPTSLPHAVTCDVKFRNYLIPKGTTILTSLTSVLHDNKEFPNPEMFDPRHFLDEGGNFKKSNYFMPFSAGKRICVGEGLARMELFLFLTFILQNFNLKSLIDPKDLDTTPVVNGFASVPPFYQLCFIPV
# Cytochrome P450 2C9, sequence (P11712 whole entry): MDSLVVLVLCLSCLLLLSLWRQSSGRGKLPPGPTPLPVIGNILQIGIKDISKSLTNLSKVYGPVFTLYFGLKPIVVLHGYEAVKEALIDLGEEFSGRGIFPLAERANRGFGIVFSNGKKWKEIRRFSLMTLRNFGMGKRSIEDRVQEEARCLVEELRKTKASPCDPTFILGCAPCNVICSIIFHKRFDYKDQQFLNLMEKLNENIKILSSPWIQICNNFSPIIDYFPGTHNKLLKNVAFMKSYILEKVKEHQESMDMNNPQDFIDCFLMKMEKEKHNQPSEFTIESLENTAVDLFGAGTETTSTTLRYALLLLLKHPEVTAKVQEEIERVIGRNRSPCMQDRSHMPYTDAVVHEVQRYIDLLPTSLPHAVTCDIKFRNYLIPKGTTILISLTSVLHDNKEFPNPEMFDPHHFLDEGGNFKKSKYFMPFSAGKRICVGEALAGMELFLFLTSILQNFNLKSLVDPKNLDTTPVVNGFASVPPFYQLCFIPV
structure (smiles),measurement,setting,value
CCN(CC)c1ccc(C2Nc3cccc4cccc(c34)N2)cc1,EC50,[1],16.8 µM (active)
same,EC50,H4,27.2 µM (active)
CCC(CC)C(=O)Nc1cccc(C(=O)Nc2ccc(OC)cc2[N+](=O)[O-])c1,AC50,Cytochrome P450 2C9,0.891 µM (inconclusive)
same,AC50,Cytochrome P450 2C19,0.316 µM (inconclusive)
CCCC(=O)Nc1sc2c(c1C#N)CCCCC2,EC50,[1],0.102 µM (active)
same,EC50,H4,> 120 µM (not active)
COc1cccc(CN2CCN(C(=O)c3ccco3)CC2)c1OC,IC50,[2],163 µM (active)
Cc1cc(C)nc(SCc2nnc(SCC(N)=O)n2Cc2ccco2)n1,AC50,Cytochrome P450 2C9,3.55 µM (inconclusive)
Cn1nc(-c2ccccc2)c(C(=O)Nc2ccc(Cl)cc2)c1Cl,AC50,Cytochrome P450 2C9,0.141 µM (inconclusive)
same,AC50,Cytochrome P450 2C19,2 µM (inconclusive)
CC[C@@H](C)[C@H](NC(=O)Cc1c(C)c2cc3c(C)c(C)oc3c(C)c2oc1=O)C(=O)O,EC50,[3],> 195 µM (not active)
COc1cccc(NC(=O)CCSc2nnc3scc(-c4ccccc4)n23)c1,EC50,[3],> 195 µM (not active)
O=C(NCCc1ccccc1)C1=COCCO1,EC50,[1],0.762 µM (active)
same,EC50,H4,> 120 µM (not active)
C=CCn1c(C)nnc1SCC(=O)Nc1nc(C)c(C(=O)N(C)C)s1,EC50,[3],> 195 µM (not active)
COc1ccc(N2CCN(c3ncccc3C#N)CC2)cc1,IC50,[2],157 µM (active)
Cc1ccc(-n2ncc(Cl)c2C(=O)NC2CC2)cc1,EC50,[1],0.26 µM (active)
CSc1ccc(/C=N/n2c(C)cc(C)cc2=O)cc1,EC50,[1],18.2 µM (active)
same,EC50,H4,7.91 µM (active)
CCc1c(O)n(-c2ccccc2)c(SCC(=O)NC(C)(C)C)nc1=O,AC50,Cytochrome P450 2C9,20 µM (inconclusive)
same,AC50,Cytochrome P450 2C19,35.5 µM (inconclusive)
CCOC(=O)c1cnc2ccc(C(=O)OC)cc2c1NCCCN1CCOCC1,EC50,[3],> 195 µM (not active)
Cc1ccc(C(=O)Nc2ccc3c(c2)C(=O)NC3=O)cc1,EC50,[3],> 195 µM (not active)
Cc1cc(Oc2ccc(-c3ccccc3)cc2)n2ncnc2n1,IC50,[2],22.7 µM (active)
COC(=O)[C@@]1(Cc2ccc(OC)cc2)[C@H]2c3cc(C(=O)N4CCCC4)n(Cc4cc(C)n(C)n4)c3C[C@H]2CN1C(=O)c1ccccc1,AC50,Cytochrome P450 2C9,12.6 µM (inconclusive)
O=C(O)CCC1(C(=O)O)OCCc2ccccc21 (stereo not drawn),EC50,[3],> 195 µM (not active)
CC(/C=N/n1c(S)nnc1-c1ccco1)=C\c1ccccc1,IC50,[2],108 µM (active)
CCc1ccc(-c2nc(C[S+]([O-])CC(=O)NCc3cccnc3)c(C)o2)cc1 (stereo not drawn),EC50,[3],> 195 µM (not active)
Cc1nccn1Cc1cccc2ccccc12,EC50,[3],> 195 µM (not active)
CCCCNCCOCCOc1ccccc1-c1ccccc1,EC50,[3],> 195 µM (not active)
O=C1CN(C(=O)COc2c(Cl)cccc2Cl)c2ccccc2N1,EC50,[3],> 195 µM (not active)
CSC1=NN(c2ccccc2)CN(c2ccccc2)N1C,IC50,[2],75.6 µM (active)
O=C(c1cc(-c2ccccc2)nc2ccccc12)N1CCN(c2ccccc2O)CC1,EC50,[4],23.8 µM (active)
same,EC50,Streptococcus,61.7 µM (active)
same,EC50,Streptokinase A,61.5 µM (active)
COC(=O)C(c1ccccc1)C1(O)CC(C)N(C)CC1C (stereo not drawn),EC50,[3],> 195 µM (not active)
Cc1ccc(C(=O)NC(=S)NNC(=O)COc2ccccc2C)cc1,EC50,[5],10.6 µM (active)
same,EC50,[4],0.138 µM (active)
same,EC50,Streptococcus,0.555 µM (active)
Oc1ccc(N2CCN(C(c3cccs3)c3nnnn3CCc3ccccc3)CC2)cc1 (stereo not drawn),IC50,[2],47.3 µM (active)
COc1ccc(C(=O)N2CCN(CCCc3ccccc3)CC2)cc1OC,IC50,[2],123 µM (active)
O=C(N/N=C/c1ccc(OCc2ccccc2)cc1)c1ccncc1,EC50,[1],17.7 µM (active)
same,EC50,H4,19.3 µM (active)
Cc1ccc(NC(=O)CN2C(=O)N/C(=C/c3ccc(C)o3)C2=O)cc1,AC50,Cytochrome P450 2C9,14.1 µM (inconclusive)
COc1ccc(N2C(=O)/C(=C\NNS(=O)(=O)c3cc(C)ccc3C)c3ccccc3C2=O)cc1OC,EC50,[5],15.5 µM (active)
CN1/C(=C\C=C(/C#N)C(=O)Nc2ccc(Cl)cc2)C(C)(C)c2ccccc21,EC50,[5],6.43 µM (active)
CCOC(=O)c1cn2nc(Oc3ccccc3)ccc2n1,EC50,[1],7.96 µM (active)
same,EC50,H4,> 120 µM (not active)
COc1ccccc1CN1CC(C(=O)NCc2ncccc2C)CCC1=O (stereo not drawn),EC50,[4],> 150 µM (not active)
same,EC50,Streptococcus,> 150 µM (not active)
same,EC50,Streptokinase A,> 150 µM (not active)
Oc1ccc(/C=N/NC(=S)N2CCOCC2)cc1,IC50,[2],63.7 µM (active)
COc1ccc(CCN2CC(C(=O)NCCc3ccccn3)CCC2=O)cc1 (stereo not drawn),EC50,[4],> 150 µM (not active)
same,EC50,Streptococcus,> 150 µM (not active)
same,EC50,Streptokinase A,> 150 µM (not active)
CCCn1nc2cc(C(=O)NCc3ccc4c(c3)OCO4)ccc2c1OCC,AC50,Cytochrome P450 2C9,10 µM (inconclusive)
same,AC50,Cytochrome P450 2C19,14.1 µM (inconclusive)
O=c1c(-c2ccccc2Cl)c[nH]n1-c1ccccc1,IC50,[2],97.4 µM (active)
Cc1[nH]c(-c2ccc(F)cc2)cc1C(=O)N1CCN(c2cccc(Cl)c2)CC1,EC50,[4],3.8 µM (active)
same,EC50,Streptococcus,11.8 µM (active)
same,EC50,Streptokinase A,> 150 µM (not active)
CCn1ccnc1CN1CCc2c([nH]c3ccccc23)C1C1CCCCC1 (stereo not drawn),EC50,[4],5.53 µM (active)
same,EC50,Streptococcus,29.3 µM (active)
same,EC50,Streptokinase A,42.1 µM (active)
C[C@H](N)C(=O)OC(C)(C)Cc1ccc(Cl)cc1 [(S)-ALAPROCLATE],AC50,Cytochrome P450 2C9,39.8 µM (inconclusive)
CCC[C@@H]1C[C@@]1(CCC)[C@@H](NP(=O)(c1ccccc1)c1ccccc1)c1ccc(C(=O)OC)cc1,EC50,[4],5.5 µM (active)
same,EC50,Streptococcus,6.87 µM (active)
same,EC50,Streptokinase A,> 150 µM (not active)
